Results published in patent US20160355483A1, “COMPOUND BINDING TO PPARG BUT NOT ACTING AS PROMOTER AND PHARMACEUTICAL COMPOSITION FOR TREATING PPARG-RELATED DISEASES CONTAINING SAME AS ACTIVE INGREDIENT” (Hyundai Pharm Co., Ltd., priority 2014, published 2016).

The compounds below were run against T1, PPARG (peroxisome proliferator activated receptor-gamma), GST-PPARG-LBD (Homo sapiens, UniProt P37231) (assay: LanthaScreen TR-FRET PPARG Competitive Binding Assay). Conditions: degree of binding activity.
T1 construct: 15 μL of 5 nM GST-PPARG-LBD and 5 nM Tb-GST-antibody were added; purchased Invitrogen PV4894
T1 sequence (P37231 238-503 limits assumed): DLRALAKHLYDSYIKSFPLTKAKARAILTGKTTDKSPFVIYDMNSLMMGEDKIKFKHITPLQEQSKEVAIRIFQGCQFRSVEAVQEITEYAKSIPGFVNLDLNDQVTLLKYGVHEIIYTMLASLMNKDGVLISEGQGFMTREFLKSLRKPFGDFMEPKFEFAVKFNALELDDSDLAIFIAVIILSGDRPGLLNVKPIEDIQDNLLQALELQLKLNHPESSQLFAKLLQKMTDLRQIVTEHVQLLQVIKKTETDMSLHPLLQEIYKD
Parameters: key: “+” indicates the degree of the binding activity, and as the number of “+” increases, the binding activity is stronger; ++: “+” indicates the degree of the binding activity, and as the number of “+” increases, the binding activity is stronger; +++: “+” indicates the degree of the binding activity, and as the number of “+” increases, the binding activity is stronger; ++++: “+” indicates the degree of the binding activity, and as the number of “+” increases, the binding activity is stronger
Experimental: The following experiment was performed to evaluate the PPARG (peroxisome proliferator activated receptor-gamma) binding capacity and transcriptional activity of the compounds prepared in the examples of the invention. For the experiment, LanthaScreen™ TR-FRET PPARG Competitive Binding Assay Kit (PV4894, Invitrogen) was used according to the manufacturer's instruction. […] The mixture was loaded in a 384-well plate (Greiner, 784075) by 20 μL per well, followed by reaction at room temperature for 1 hour. Upon completion of the reaction, fluorescence value was measured by using Flexstation 3 (Molecular Devices) with time-resolved fluorescence (RFU) mode (excitation 1: 340 nm, emission 1: 518 nm, excitation 2: 340 nm, emission 2: 488 nm, integration delay 50 μs, integration 400 μs). The results were calculated by using 518 nm RFUs/488 nm RFUs ratio. The activity of the compounds of the invention was compared with that of the vehicle, which was calculated by ratio according to the formula [100%−compound of the example ratio/vehicle ratio]. At this time, the binding activity ratio to rosiglitazone was compared.
For COc1cccc([C@H](C)NC(=O)c2ccc3c(c2)CCCN3Cc2ccc(-c3ccccc3C(N)=O)cc2)c1 [Example 40, (S)-1-((2′-carbamoyl-[1,1′-biphenyl]-4-yl)methyl)-N-(1-(3-methoxyphenyl)ethyl)-1,2,3,4-tetrahydroquinoline-6-carboxamide], the “Binding assay (1 μLM)” value was “+++”. COc1ccccc1[C@H](C)NC(=O)c1ccc2c(c1)CCCN2Cc1ccc(-c2ccccc2C(N)=O)cc1 [Example 41, (S)-1-((2′-carbamoyl-[1,1′-biphenyl]-4-yl)methyl)-N-(1-(2-methoxyphenyl)ethyl)-1,2,3,4-tetrahydroquinoline-6-carboxamide] was tested, and the “Binding assay (1 μLM)” value was “+++”. In the case of C[C@H](NC(=O)c1ccc2c(c1)CCCN2Cc1ccc(-c2ccccc2C(N)=O)cc1)c1ccccc1F [Example 42, (S)-1-((2′-carbamoyl-[1,1′-biphenyl]-4-yl)methyl)-N-(1-(2-fluorophenyl)ethyl)-1,2,3,4-tetrahydroquinoline-6-carboxamide], the “Binding assay (1 μLM)” value was “+++”. With C[C@H](NC(=O)c1ccc2c(c1)CCCN2Cc1ccc(-c2ccccc2C(N)=O)cc1)c1ccccc1C(F)(F)F [Example 43, (S)-1-((2′-carbamoyl-[1,1′-biphenyl]-4-yl)methyl)-N-(1-(2-(trifluoromethyl)phenyl)ethyl)-1,2,3,4-tetrahydroquinoline-6-carboxamide] the “Binding assay (1 μLM)” value was “++”. For C[C@H](NC(=O)c1ccc2c(c1)CCCN2Cc1ccc(-c2ccccc2C(N)=O)cc1)c1cccc(F)c1 [Example 45, (S)-1-((2′-carbamoyl-[1,1′-biphenyl]-4-yl)methyl)-N-(1-(3-fluorophenyl)ethyl)-1,2,3,4-tetrahydroquinoline-6-carboxamide], the “Binding assay (1 μLM)” value was “+++”. For C[C@H](NC(=O)c1ccc2c(c1)CCCN2Cc1ccc(-c2ccccc2C(N)=O)cc1)c1cccc(OC(F)(F)F)c1 [Example 46, (S)-1-((2′-carbamoyl-[1,1′-biphenyl]-4-yl)methyl)-N-(1-(3-(trifluoromethoxy)phenyl)ethyl)-1,2,3,4-tetrahydroquinoline-6-carboxamide], the “Binding assay (1 μLM)” value was “+++”. C[C@H](NC(=O)c1ccc2c(c1)CCCN2Cc1ccc(-c2ccccc2C(N)=O)cc1)c1cccc(C(F)(F)F)c1 [Example 47, (S)-1-((2′-carbamoyl-[1,1′-biphenyl]-4-yl)methyl)-N-(1-(3-(trifluoromethyl)phenyl)ethyl)-1,2,3,4-tetrahydroquinoline-6-carboxamide] was tested, and the “Binding assay (1 μLM)” value was “+++”. With NC(=O)c1ccccc1-c1ccc(CN2CCCc3cc(C(=O)NCc4ccncc4)ccc32)cc1 [Example 48, 1-((2′-carbamoyl-[1,1′-biphenyl]-4-yl)methyl)-N-(pyridine-4-ylmethyl)-1,2,3,4-tetrahydroquinoline-6-carboxamide] the “Binding assay (1 μLM)” value was “+”. For Cc1ccc([C@H](C)NC(=O)c2ccc3c(c2)CCCN3Cc2ccc(-c3ccccc3C(N)=O)cc2)cc1F [Example 49, (S)-1-((2′-carbamoyl-[1,1′-biphenyl]-4-yl)methyl)-N-(1-(3-fluoro-4-methylphenyl)ethyl)-1,2,3,4-tetrahydroquinoline-6-carboxamide], the “Binding assay (1 μLM)” value was “+++”. For NC(=O)c1ccccc1-c1ccc(CN2CCCc3cc(C(=O)NCc4ccccc4)ccc32)cc1 [Example 50, N-benzyl-1-((2′-carbamoyl-[1,1′-biphenyl]-4-yl)methyl)-1,2,3,4-tetrahydroquinoline-6-carboxamide], the “Binding assay (1 μLM)” value was “+++”. In the case of NC(=O)c1ccccc1-c1ccc(CN2CCCc3cc(C(=O)NCc4ccccc4Br)ccc32)cc1 [Example 51, N-(2-bromobenzyl)-1-((2′-carbamoyl-[1,1′-biphenyl]-4-yl)methyl)-1,2,3,4-tetrahydroquinoline-6-carboxamide], the “Binding assay (1 μLM)” value was “+++”. In the case of NC(=O)c1ccccc1-c1ccc(CN2CCCc3cc(C(=O)NCc4ccc5c(c4)OCCO5)ccc32)cc1 [Example 52, 1-((2′-carbamoyl-[1,1′-biphenyl]-4-yl)methyl)-N-((2,3-dihydrobenzo[b][1,4]dioxin-6-yl)methyl)-1,2,3,4-tetrahydroquinoline-6-carboxamide], the “Binding assay (1 μLM)” value was “+++”. NC(=O)c1ccccc1-c1ccc(CN2CCCc3cc(C(=O)NCc4ccc(Br)cc4)ccc32)cc1 [Example 53, N-(4-bromobenzyl)-1-((2′-carbamoyl-[1,1′-biphenyl]-4-yl)methyl)-1,2,3,4-tetrahydroquinoline-6-carboxamide] was tested, and the “Binding assay (1 μLM)” value was “+++”. For NC(=O)c1ccccc1-c1ccc(CN2CCCc3cc(C(=O)NCc4cccc(OC(F)(F)F)c4)ccc32)cc1 [Example 54, 1-((2′-carbamoyl-[1,1′-biphenyl]-4-yl)methyl)-N-(3-(trifluoromethoxy)benzyl)-1,2,3,4-tetrahydroquinoline-6-carboxamide], the “Binding assay (1 μLM)” value was “+++”. With C[C@H](NC(=O)c1ccc2c(c1)OCCN2Cc1ccc(-c2ccccc2C(N)=O)cc1)c1ccccc1 [Example 59, (S)-4-((2′-carbamoyl-[1,1′-biphenyl]-4-yl)methyl)-N-(1-phenylethyl)-3,4-dihydro-2H-benzo[b][1, 4]oxazine-7-carboxamide] the “Binding assay (1 μLM)” value was “++”. C[C@H](NC(=O)c1ccc2c(c1)OCCN2Cc1ccc(-c2ccccc2C(=O)O)cc1)c1ccc(Br)cc1 [Example 61, (S)-4′-((7-((1-(4-bromophenyl)ethyl)carbamoyl)-2H-benzo[b][1,4]oxazine-4(3H)-yl)methyl)-[1,1′-biphenyl]-2-carboxylic acid] was tested, and the “Binding assay (1 μLM)” value was “++”. In the case of CC[C@H](NC(=O)c1ccc2c(c1)OCCN2Cc1ccc(-c2ccccc2C(=O)O)cc1)c1ccccc1 [Example 62, (S)-4′-((7-((1-phenylpropyl)carbamoyl)-2H-benzo[b][1,4]oxazine-4(3H)-yl)methyl)-[1,1′-biphenyl]-2-carboxylic acid], the “Binding assay (1 μLM)” value was “+++”. In the case of C[C@H](NC(=O)c1ccc2c(c1)OCCN2Cc1ccc(-c2ccccc2C(=O)O)cc1)c1ccc(F)cc1 [Example 63, (S)-4′-((7-((1-(4-fluorophenyl)ethyl)carbamoyl)-2H-benzo[b][1,4]oxazine-4(3H)-yl)methyl)-[1,1′-biphenyl]-2-carboxylic acid], the “Binding assay (1 μLM)” value was “+”. With C[C@H](NC(=O)c1ccc2c(c1)OCCN2Cc1ccc(-c2ccccc2C(=O)O)cc1)c1ccc(Cl)cc1 [Example 64, (S)-4′-((7-((1-(4-chlorophenyl)ethyl)carbamoyl)-2H-benzo[b][1,4]oxazine-4(3H)-yl)methyl)-[1,1′-biphenyl]-2-carboxylic acid] the “Binding assay (1 μLM)” value was “+”. In the case of C[C@H](NC(=O)c1ccc2c(c1)OCCN2Cc1ccc(-c2ccccc2C(=O)O)cc1)c1cccc(Cl)c1 [Example 65, (S)-4′-((7-((1-(3-chlorophenyl)ethyl)carbamoyl)-2H-benzo[b][1,4]oxazine-4(3H)-yl)methyl)-[1,1′-biphenyl]-2-carboxylic acid], the “Binding assay (1 μLM)” value was “++”. In the case of O=C(NCc1ccc([N+](=O)[O-])cc1)c1ccc2c(c1)OCCN2Cc1ccc(-c2ccccc2C(=O)O)cc1 [Example 66, 4′-((7-((4-nitrobenzyl)carbamoyl)-2H-benzo[b][1,4]oxazine-4(3H)-yl)methyl)-[1,1′-biphenyl]-2-carboxylic acid], the “Binding assay (1 μLM)” value was “+”. In the case of O=C(NCc1ccccc1)c1ccc2c(c1)OCCN2Cc1ccc(-c2ccccc2C(=O)O)cc1 [Example 67, 4′-((7-(benzylcarbamoyl)-2H-benzo[b][1,4]oxazine-4(38)-yl)methyl)-[1,1′-biphenyl]-2-carboxylic acid], the “Binding assay (1 μLM)” value was “++”.
